Source: patent publication US11771778B2, “Using DREADD for neuronal modulation in treating neuronal diseases” (priority 2016, dated 2023)

Key:
[1] = target: T1, wild-type M3 muscarinic receptor (hM3) (Homo sapiens, UniProt P20309); details: human pulmonary artery smooth muscle cells (Armbruster et al., 2007); cited from earlier work
T1 construct: host or cells: human pulmonary artery smooth muscle cells

[2] = Open field test, mice without DREADD (normal control and 6OHDA hemi PD); format: in vivo, C57 black mice; details: normal control and 6OHDA hemi PD mice, no DREADD, IP CNO 5 mg/kg, blinded
Procedure: (§1) To monitor the motor impairment and the ability of the DREADD therapy to reverse these impairments the following behavioral tests are conducted. Open field test: to measure motor activity dysfunction. In this test the spontaneous movement of mice in a square arena are recorded and quantified. Rotarod test: Mice were placed on a rotating rod with rotation speed gradually increasing from 4 to 40 RPM using a preset acceleration program. The time mice fell from the rotating rod was measured, with 300 seconds being the maximal time measured on the rod.
(§2) Experiments were performed on 2-4 month old wild type C57 black mice. […]
(§3) Two behavioral tests were used for monitoring the behavior of mice: (1) Open field test: Mice were placed in a 30 cm×30 cm×30 cm open top box for 5 minutes and continuous recorded on a video. The results were analyzed off-line after the experiments ended. Using the EthoVision software, the mean velocity and distance traveled by the mice were monitored during the 5 minutes of open field test. In addition, the number and direction of 180° turns were monitored with the EthoVision software. […] The time mice fell from the rotating rod was measured, with 300 seconds being the maximal time measured on the rod. […]

[3] = Rotarod test, mice without DREADD (normal control and 6OHDA hemi PD); format: in vivo, C57 black mice; details: normal control and 6OHDA hemi PD mice, no DREADD; IP CNO 5 mg/kg, blinded
Procedure: as §1, §2, §3

[4] = target: T2, Gi DREADD (hM4D(Gi)) in the EP (GPi) and SNr nuclei (Homo sapiens, UniProt P08173, A203G/Y113C); assay: Open field test, 6OHDA PD mice expressing Gi DREADD in EP and SNr; format: in vivo, C57 black mice
T2 construct: expressed in transfected cells; host or cells: neurons of C57 black mice (EP/SNr or STN), transduced with an AAV8 vector under the hSyn promoter
T2 sequence (P08173 1-479 Y113C/A203G): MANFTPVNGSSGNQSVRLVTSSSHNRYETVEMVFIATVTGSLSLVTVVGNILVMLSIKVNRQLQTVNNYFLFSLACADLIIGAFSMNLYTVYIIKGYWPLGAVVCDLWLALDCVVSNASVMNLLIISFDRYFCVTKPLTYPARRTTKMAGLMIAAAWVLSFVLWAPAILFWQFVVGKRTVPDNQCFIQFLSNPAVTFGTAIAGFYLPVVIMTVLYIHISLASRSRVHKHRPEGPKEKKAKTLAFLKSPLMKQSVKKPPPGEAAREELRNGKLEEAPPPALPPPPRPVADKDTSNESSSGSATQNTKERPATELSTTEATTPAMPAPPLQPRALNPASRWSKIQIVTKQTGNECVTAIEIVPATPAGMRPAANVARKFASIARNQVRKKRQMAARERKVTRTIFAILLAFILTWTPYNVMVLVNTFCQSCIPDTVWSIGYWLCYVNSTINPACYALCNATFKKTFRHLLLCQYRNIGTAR
Procedure: as §1
(§4) Experiments were performed on 2-4 month old wild type C57 black mice. To induce experimental PD, 1 microliter of a solution containing 6 hydroxy dopamine (6-OHDA) (3 mg/1 ml) was injected into the medial forebrain bundle via a small craniotomy drilled in the skull. The mouse head was fixated in a stereotaxic frame, and the 6OHDA containing solution was injected using a glass pipette held by a micro-manipulator and a micro-injector.
(§5) To express DREADDs (either the inhibitory DREADD Gi or the excitatory DREADD Gq) viral vectors were injected (either AAV8-hSyn-hM3D(Gq)-mCherry or AAV8-hSyn-hM4D(Gi)-mCherry). The viral vectors were injected through a craniotomy with a glass pipette held by a micromanipulator and a micro-injector. During the injections the head was fixated in a stereotaxic frame for accurate injections. Mice were anesthetized throughout the procedure with isoflurane.
(§6) The viral vectors […] were injected into several targets in the basal ganglia loop including the STN (either Gi and Gq), the EP and SNr nuclei (Gi), GPe (Gq) and the ventral thalamus (Gq). The injections were usually unilateral at the side of the 6OHDA injections. However, in cases of bilateral 6OHDA injections viral vectors were injected to the target nuclei bilaterally. Usually viral vectors and 6OHDA were injected at the same session.
(§7) To investigate the effect of DREADD activation, 500 μl of either IP CNO (5 mg/kg) or normal saline (NS-0.9% NaCl) was administered. Administration of either CNO or saline was performed in a blinded manner. […] Behavioral experiments were performed approximately 20-30 minutes after IP drug administration.
as §3

[5] = target: T2, Gi DREADD (hM4D(Gi)) in the EP (GPi) and SNr nuclei; assay: Rotarod test, 6OHDA PD mice expressing Gi DREADD in EP and SNr; format: in vivo, C57 black mice
Procedure: as §1, §2, §3

[6] = target: T3, Gq DREADD (hM3D(Gq)) in the GPe nucleus (Homo sapiens, UniProt P20309, A239G/Y149C); assay: Open field test, 6OHDA PD mice expressing Gq DREADD in GPe; format: in vivo, C57 black mice
T3 construct: expressed in transfected cells; host or cells: neurons of C57 black mice (GPe or STN), transduced with an AAV8 vector under the hSyn promoter
Procedure: as §1, §4, §5
as §6, with “session. […]” for “session.”
as §3
In this set of experiments, the GPe nucleus, which serves as a major relay nucleus exclusively belonging to the indirect pathway, was targeted. More specifically, the GPe neurons were activated using the excitatory Gq DREADDs, and the effect on behavior on 6-OHDA induced hemi-parkinsonian mice, was monitored.

[7] = target: T3, Gq DREADD (hM3D(Gq)) in the GPe nucleus; assay: Rotarod test, 6OHDA PD mice expressing Gq DREADD in GPe; format: in vivo, C57 black mice
Procedure: as §1, §2, §3

[8] = target: T4, Gi DREADD (hM4D(Gi)) in the STN (Homo sapiens, UniProt P08173, A203G/Y113C); assay: Open field test, 6OHDA PD mice expressing Gi DREADD in STN; format: in vivo, C57 black mice; details: blinded IP CNO
T4 construct: expressed in transfected cells; host or cells: neurons of C57 black mice (EP/SNr or STN), transduced with an AAV8 vector under the hSyn promoter
T4 sequence (P08173 1-479 Y113C/A203G): T2 sequence (P08173 1-479 Y113C/A203G)
Procedure: as §1, §2, §3

[9] = target: T4, Gi DREADD (hM4D(Gi)) in the STN; assay: Rotarod test, 6OHDA PD mice expressing Gi DREADD in STN; format: in vivo, C57 black mice; details: blinded IP CNO
Procedure: as §1, §2, §3

[10] = target: T5, Gq DREADD (hM3D(Gq)) in the STN (Homo sapiens, UniProt P20309, A239G/Y149C); assay: Open field test, 6OHDA PD mice expressing Gq DREADD in STN; format: in vivo, C57 black mice; details: IP CNO 5 mg/kg
T5 construct: expressed in transfected cells; host or cells: neurons of C57 black mice (GPe or STN), transduced with an AAV8 vector under the hSyn promoter
Procedure: as §1, §4, §5, §6, §7, §3

[11] = target: T5, Gq DREADD (hM3D(Gq)) in the STN; assay: Rotarod test, 6OHDA PD mice expressing Gq DREADD in STN; format: in vivo, C57 black mice; details: IP CNO 5 mg/kg
Procedure: as §1, §2, §3

hM3Dq receptor (hM3D) = target: T6, hM3Dq receptor (hM3D) (Homo sapiens, UniProt P20309, A239G/Y149C); details: human pulmonary artery smooth muscle cells (Armbruster et al., 2007); cited from earlier work
T6 construct: host or cells: human pulmonary artery smooth muscle cells

[12] = 6OHDA bilateral PD mice, bilateral Gi DREADD in both EP and SNr nuclei, p<0.01
[13] = 6OHDA hemi PD mice, unilateral Gi DREADD in EP and SNr, IP CNO 5 mg/kg
[14] = 6OHDA bilateral PD mice, Gq DREADD in both GPe nuclei, p<0.01
[15] = 6OHDA hemi PD mice, unilateral Gq DREADD in GPe, IP CNO 5 mg/kg
[16] = 6OHDA hemi PD mice, unilateral Gq DREADD in STN
[17] = bilateral 6OHDA PD mice, bilateral Gq DREADD in STN

T5 sequence (P20309 whole entry Y149C/A239G): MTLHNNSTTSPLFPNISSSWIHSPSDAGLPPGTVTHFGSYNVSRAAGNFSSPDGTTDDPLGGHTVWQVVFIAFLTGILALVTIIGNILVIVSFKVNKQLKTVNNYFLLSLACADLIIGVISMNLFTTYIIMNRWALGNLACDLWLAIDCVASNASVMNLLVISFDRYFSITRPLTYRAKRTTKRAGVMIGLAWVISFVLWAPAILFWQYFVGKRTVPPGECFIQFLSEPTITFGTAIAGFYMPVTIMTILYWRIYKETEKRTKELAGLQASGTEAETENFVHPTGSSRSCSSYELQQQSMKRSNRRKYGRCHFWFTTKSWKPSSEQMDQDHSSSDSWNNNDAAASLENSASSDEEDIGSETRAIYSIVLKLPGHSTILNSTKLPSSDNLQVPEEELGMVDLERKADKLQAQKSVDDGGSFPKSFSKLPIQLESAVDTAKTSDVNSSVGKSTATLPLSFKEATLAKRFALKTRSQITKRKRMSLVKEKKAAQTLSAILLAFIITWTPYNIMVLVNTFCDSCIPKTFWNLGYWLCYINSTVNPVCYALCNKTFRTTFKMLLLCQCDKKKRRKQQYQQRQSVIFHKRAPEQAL
T3 sequence (P20309 whole entry Y149C/A239G): as above
T1 sequence (P20309 whole entry): as the sequence (P20309 whole entry Y149C/A239G) above, with C149Y, G239A counted along it
T6 sequence (P20309 whole entry Y149C/A239G): as the sequence (P20309 whole entry Y149C/A239G) above

CC(=O)OCC[N+](C)(C)C [ACh]
activation of wild-type M3 muscarinic receptor (hM3) [1]: potently activated

C[N+]1([O-])CCN(C2=Nc3cc(Cl)ccc3Nc3ccccc32)CC1 [CNO, clozapine-N-oxide]
movement velocity in the open field test, CNO vs NS [2]: no significant differences | ipsilateral turning (number and percent of clockwise rotations), CNO vs NS ([2]; 5-minute open field): no significant differences | time to falling off the rotating rod, CNO vs NS [3]: no significant differences | mean velocity in motor activity test, CNO vs NS [4, 12]: beneficial effect | improvement in the mean velocity in the open field test compared to NS [4, 13]: 36±9% | reduction in the number of clockwise rotations compared to NS [4, 13]: 68.9±10.8% | reduction in the percent of clockwise rotations compared to NS [4, 13]: 46±8.6% | average time on the rotating rod in the rotarod test, CNO vs NS [5, 12]: beneficial effect | increase in the time spent on the rotating rod in the rotarod test compared to NS [5, 13]: 30.5±7.1% | mean velocity in motor activity test, CNO vs NS [6, 14]: beneficial effect | increase in the mean velocity in the open field test compared to NS [6, 15]: 77.2±24.7% | reduction in the number of clockwise rotations compared to NS [6, 15]: 37.7±20% | reduction in the percent of clockwise rotations compared to NS [6, 15]: 40±7.8% | average time on the rotating rod in the rotarod test, CNO vs NS [7, 14]: beneficial effect | increase in the time spent on the rotating rod in the rotarod test compared to NS [7, 15]: 25.6±6.1% | effect on turns, CNO vs NS [8]: small, yet significant beneficial effect | mean velocity in the open field test, CNO vs NS [8]: did not significantly affect | performances in the rotarod test, CNO vs NS [9]: did not significantly affect | increase in the mean velocity in the open field test compared to NS [10, 16]: 117.6±26.9% | reduction in the number of clockwise rotations compared to NS [10, 16]: 37.2±17% | reduction in the percent of clockwise rotations compared to NS [10, 16]: 47.6±11.1% | increase in the mean velocity in the open field test compared to NS [10, 17]: 294.4±70.9% | performances in the rotarod test, CNO vs NS [11, 16]: no significant differences | increase in the time before falling off the rotarod compared to NS [11, 17]: 81±15.8% | activation of hM3Dq receptor resulting in PIP2 hydrolysis (hM3Dq receptor (hM3D)): selectively activated | activation of wild-type M3 muscarinic receptor (hM3) [1]: not by CNO
